“Also recorded” adds a separate entry of the source. Counter-ions that a name gives are not always drawn. Like-named read-outs stand apart in the source and are kept apart here.
Experiments:
natural suppressor cells [1] = biological target: T1, natural suppressor cells (Mus musculus, UniProt P97292); assay: Effects of histamine derivatives on cAMP accumulation in natural suppressor (NS) cells; format: cell-based, mouse (BALB/c); settings: for Relative potency: histamine = 1.0; for Maximal efficacy on cAMP concentrations (in words): compared with histamine; for Activity / potency on NS cells (in words): cAMP accumulation, H2 activity
T1 construct: cAMP accumulation
T1 sequence (P97292 whole entry): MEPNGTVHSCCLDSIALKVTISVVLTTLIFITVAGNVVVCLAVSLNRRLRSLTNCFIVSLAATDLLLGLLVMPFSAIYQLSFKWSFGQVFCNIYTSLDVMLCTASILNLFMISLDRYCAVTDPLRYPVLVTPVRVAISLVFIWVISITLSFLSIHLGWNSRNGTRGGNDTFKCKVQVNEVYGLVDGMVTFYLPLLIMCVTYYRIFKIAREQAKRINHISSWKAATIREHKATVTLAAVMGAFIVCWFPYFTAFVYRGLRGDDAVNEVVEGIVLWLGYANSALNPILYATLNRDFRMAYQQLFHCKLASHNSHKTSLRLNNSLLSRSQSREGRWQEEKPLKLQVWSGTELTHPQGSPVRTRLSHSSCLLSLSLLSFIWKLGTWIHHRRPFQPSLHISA
Source text: NS cells were obtained and cultured as follows: four-to six-month old BALB/c mice were anesthetized with pentobarbital and all major lymphoid organs, including all major lymph nodes, the spleen, and the thymus, were irradiated as described by Slavin et al., Science (1976) 193:1252. The skull, lungs, and hind legs were shielded with lead. The mice were given 200 rad per day, 5 times per week, to a total dose of 3400 rad. Irradiation was delivered from a single 250 kV (15A) source (Philips Medical Systems, Inc., Shelton, CT). The mice were killed between 5 and 15 days after completion of the TLI. Spleens were removed aseptically and single cell suspensions were prepared by gently pressing the spleen fragments through a nylon fiber mesh (Tetko, Inc., Elmsford, NY). These spleen cells were fed daily with tissue culture medium containing RPMI 1640, 10% FCS, 2 mM glutamine, 10% CAS and 5×10^-5 M 2-mercaptoethanol and were later cloned by limiting dilutior, The clones were maintained in RPMI 1640 medium with 10% PCS and 10% CAS.
NS cells were centrifuged and resuspended at b 1×10^6 /ml in PBS and incubated at 37° C. for 10 min with 10 mM IBMX at a final concentration at 20 μM. Alternatively the cells were resuspended in 5 mM HEPES and 1 mM MgSO4 and after five minutes were disrupted in a Dounce homogenizer. Broken cells were centrifuged at 20,000 g […] for thirty minutes and supernatant was discarded. The pellet was resuspended in Tris (pH 7.5), 5 mM HEPES and 1 mM MgSO4 and incubated with IBMX.
Cold TCA (100%) was added to a final concentration of 8% and the tubes were stored in ice. Samples were extracted 3 times with 3 volumes of ether. The ether was evaporated at 40° C. in a water bath for approximately 45 min. Acetylation of both experimental samples and cAMP standards were performed by addition of 10 μl of a mixture of triethylamine and acetic anhydride (2:1). […] The radio-immunoassay was performed as reported previously by Khan et al., J. Clin. Invest. (1985) 75:1578.

[2] = biological target: T2, guinea pig myocardial adenylate cyclase (Cavia porcellus, UniProt P47747); assay: Guinea pig myocardial adenylate cyclase assay; format: biochemical; settings: adenylate cyclase
T2 construct: histamine-stimulated adenylate cyclase with GPP(NH)P
T2 sequence (P47747 whole entry): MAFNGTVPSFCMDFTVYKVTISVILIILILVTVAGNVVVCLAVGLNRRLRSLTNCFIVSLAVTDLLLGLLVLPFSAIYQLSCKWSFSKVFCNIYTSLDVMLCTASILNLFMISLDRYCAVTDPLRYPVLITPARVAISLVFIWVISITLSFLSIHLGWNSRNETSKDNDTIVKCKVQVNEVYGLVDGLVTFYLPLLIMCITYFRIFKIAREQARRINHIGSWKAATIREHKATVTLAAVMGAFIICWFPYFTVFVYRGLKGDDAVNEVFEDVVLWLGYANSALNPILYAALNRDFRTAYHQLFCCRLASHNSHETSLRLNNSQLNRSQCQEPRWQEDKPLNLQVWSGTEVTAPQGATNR
Protocol: Male, partly albino, guinea pigs (600 g average weight) were killed by a blow to the head. The hearts were excised and immediately immersed in ice cold oxygenated Tyrode's solution. Both ventricles were dissected free and placed in 250 mM sucrose, 5 mM Tris, 1 mM EDTA, pH 7.45. The tissue was minced with a screen, and was then homogenized with 3 consecutive 5 sec bursts of a Polytron (Brinkman Instruments, Inc., Westbury, NY) at a setting of 11. The homogenate was then centrifuged at 1085×g for 20 min. The pellet was resuspended and recentrifuged twice. The final suspension was filtered through four layers of gauze. Adenylate cyclase was assayed by the method of Salomon et al., Anal. Biochem. (1974) 58:541 as modified by Bristow et al., Mol Pharmacol. (1982) 21:671. Enzyme protein (75-250 μg) was added to a reaction mixture that consisted of 0.1 mM Mg ATP, 0.5 mM MgCl2, 10 mM phosphocreatine, 14.5 μg of creatine kinase (1381 U/mg), 100 mM
The final reaction volume before addition of α-^32 P!ATP was 225 μl. Reaction tubes were stored in cryogenic racks (Kryorack, Isolab, Inc. Akron, OH) at 0° C.
The reaction mixture was pre-warmed in a shaking water bath at 30° C. for 5 min after which 25 μl ([…]) of α-^32 P!ATP (250-500 Ci/mM) was added to label the ATP pool. The assay time was 20 min, the time needed for measurable stimulation of adenylate cyclase. The ^32 P reaction was stopped by the addition of 750 μl of 1% sodium dodecysulfate. ^32 P-labelled cyclic AMP was then isolated by the dual Dowex-alumina column method of Salomon et al., supra. α-^32 P!ATP (New England Nuclear Corporation, Boston, MA) that gave reagent blanks of 50 cpm was purified on Dowex columns as described by Salomon et al., supra.

natural suppressor cells [3] = biological target: T1, natural suppressor cells; assay: Blocking histamine effects in natural suppressor cells (H2 antagonism); format: cell-based, mouse (BALB/c); settings: for Antagonism by cimetidine (H2 antagonist) of cAMP accumulation: cimetidine 10^-5 M, compounds 6-8 at 10^-4 M, 9 at 10^-7 M
Protocol: This assay was carried out in the same fashion as already described for the derivatives except that ED-90 concentration of the test compound was chosen. Cimetidine was added at the same time in concentrations ranging from 10^-4 to 10^-8 M. Alternatively, 10^-6 M cimetidine was added to 10^-3 -10^-8 M concentration of agonists.

natural suppressor cells [4] = assay: Mixed leukocyte reaction (MLR) suppressor assay; format: cell-based, mouse (BALB/c, C57 BL/6)
Protocol: Responder (BALB/c) and stimulator (C57 BL/6) spleen cells (5×10^5each) were incubated with graded numbers of NS cells in 0.3 ml/well in 96-well flat bottomed microculture plates (Costar, Data Packaging, Cambridge, MA). The culture medium was supplemented with 100 U/ml penicillin, 100 ug/ml of streptomycin (both GIBCO, Grand Island, NY), and 10=pooled human serum (VSP human serum, Biocell Laboratories, Carson CA). Co-cultured cells and stimulator cells were given 3300 rad before incubation. Cultures were maintained at 37° C. in 5% CO2 for 5 or 6 days. Eighteen hr before termination, 1 μCi of ^3 H!-thymidine (specific activity […]) (New England Nuclear, Boston, MA) was added to each culture. Cells were harvested as described above. The data were expressed as the arithmetic mean of triplicate cultures. Suppression was calculated as follows: percent suppression=1-(CPM with co-cultured cells)/(CPM without co-cultured cells)×100. […] To block the effects of agonists, […] cimetidine was used as an H2 antagonist and 10^-6 M mepyramine was used as an H1 antagonist.
CO-cultured and stimulator cells were given 3300 rad in vitro just prior to incubation. […] See, Khan et al., J. Immunol. (1985) 134:4100. […] To determine the role of H1 and H2 receptors in the modification of NS cell function, the incubation with compound 10 was carried out in the presence of either cimetidine (10^-5 M) or mepyramine (10^-6 M) for four hours at 37° C. The cells were then washed extensively and later added to co-cultures with responder and stimulator cells. […] Similar experiments were carried out with each of the indicated agonists (Table 5).

SMILES | Relative potency (natural suppressor cells [1]; NS cells) | Activity / potency on NS cells (in words) (natural suppressor cells [1]) | Antagonism by cimetidine (H2 antagonist) of cAMP accumulation (natural suppressor cells [3]) | Activity on guinea pig myocardium (in words) [2] | also measured
Cc1ccc(NC(=O)CCCCNCCc2c[nH]cn2)cc1 [Compound 5, 5-2'-(4"-Imidazo)ethylamino!pentanoic Acid p-Toluide, Dihydrochloride] | 0.2 × 10^1 | – | – | – | Activity on guinea pig myocardium (in words) ([2]; Dihydrochloride): significantly different in their activity
CC(CCCCC(=O)Nc1ccc(C(F)(F)F)cc1)NCCc1c[nH]cn1 (stereo not drawn) [Compound 9] | 4.3 × 10^4 | very potent in NS cell cAMP assays | could not be completely inhibited by the H2 antagonist | strikingly impotent in guinea pig myocardium | Potency or activity relative to histamine (natural suppressor cells [1]; NS cells): 40,000 fold; Potency relative to histamine (natural suppressor cells [1]; NS cells): 4 orders of magnitude; Maximal efficacy on cAMP concentrations (in words) (natural suppressor cells [1]; NS cells): lost a significant amount of maximal efficacy; Activity / potency on NS cells (in words) (natural suppressor cells [1]; listed as compound 9): most potent of this series on H2 receptors; also recorded: retained H2 activity; Activity on guinea pig myocardium (in words) ([2]; listed as compound 9): did not stimulate adenylate cyclase in guinea pig myocardium
Cc1ccc(NC(=O)CCCC(C)NCCc2c[nH]cn2)cc1 (stereo not drawn) [Compound 6] | 3.8 × 10^3 | very potent in NS cell cAMP assays | could not be completely inhibited by the H2 antagonist | strikingly impotent in guinea pig myocardium; also recorded: less potent than histamine on the myocardium; also recorded: very weak effects; also recorded: significantly different in their activity | Potency or activity relative to histamine (natural suppressor cells [1]; NS cells): 3000 fold; Potency relative to histamine (in words) (natural suppressor cells [1]; NS cells): three orders of magnitude more potent than histamine; Activity / potency on NS cells (in words) (natural suppressor cells [1]; listed as compound 6): widely divergent activity; also recorded: retained H2 activity; Activity on guinea pig myocardium (in words) ([2]; listed as compound 6): same rank order of potency found in the NS cells
CCCCCCNCCc1c[nH]cn1 [Compound 1, 1-2'-(4"-Imidazo)ethylamino!hexane, Dihydrochloride] | 0.5 × 10^1 | – | not inhibited by the H2 antagonist | – | Potency relative to histamine (in words) (natural suppressor cells [1]; NS cells, Dihydrochloride): about equipotent to histamine; also recorded: equipotent to histamine on the lymphocyte accumulation of cyclic AMP; Activity on guinea pig myocardium (in words) ([2]; Dihydrochloride): completely inactive; also recorded: little or no effect on the myocardium
CC(CCCC(=O)Nc1ccc(C(F)(F)F)cc1)NCCc1c[nH]cn1 (stereo not drawn) [Compound 10] | Inactive | lost all H2 activity | – | no effect on the guinea pig myocardium | H1 activity in MLR (in words) (natural suppressor cells [4]): only H1 agonistic action; H1 activity in MLR (in words) (natural suppressor cells [4]; listed as compound 10): appeared to be a specific H1 receptor agonist
CN(C)CCCSC(=N)N [Dimaprit, reference compound] | – | had H2 effects on the NS cells | – | – | EC50 (natural suppressor cells [1]; NS cells): 60 µM; Maximal efficacy on cAMP concentrations (in words) (natural suppressor cells [1]; NS cells): did not produce the same maximal effects as histamine on cAMP concentrations; Shift of dose response curve by cimetidine (natural suppressor cells [3]; 10^-3 M to 10^-8 M agonist, 10^-6 M cimetidine): parallel shifts to the right
Cc1ccc(NC(=O)CCCCC(C)NCCc2c[nH]cn2)cc1 (stereo not drawn) [Compound 7, 6-2'-(4"-Imidazolyl)ethylamino!heptanoic Acid p-Toluide] | 0.3 × 10^1 | widely divergent activity | – | same rank order of potency found in the NS cells | Potency relative to histamine (in words) (natural suppressor cells [1]; NS cells): three times as potent as histamine
Cc1ccc(NC(=O)CCCC(=O)NCCc2c[nH]cn2)cc1 [Compound 4, 5-2'-(4"-Imidazo)ethylamido!glutaryl p-Toluidine] | 0.4 × 10^1 | very active on NS cells | not inhibited by the H2 antagonist | inactive on the guinea pig myocardium; also recorded: little or no effect on the myocardium | Potency relative to histamine (in words) (natural suppressor cells [1]; NS cells): four times more potent than histamine; also recorded: equipotent to histamine on the lymphocyte accumulation of cyclic AMP
Cc1ccc(NC(=O)CCCCCC(C)NCCc2c[nH]cn2)cc1 (stereo not drawn) [Compound 8] | 0.2 × 10^1 | widely divergent activity | – | very weak effects | Activity on guinea pig myocardium (in words) ([2]; listed as compound 8): same rank order of potency found in the NS cells
COc1ccc(CN(CCN(C)C)c2ccccn2)cc1 [Mepyramine, reference compound] | – | – | – | – | Effect of antagonist on derivative-enhanced suppression in MLR (natural suppressor cells [4]; with compound 10, cimetidine 10^-5 M or mepyramine 10^-6 M, four hours at 37° C): reversed the increase in suppressive activity of the derivative-stimulated NS cells
CNC(=O)CNC(=O)[C@H](Cc1ccc(NC(=O)CCCCC(C)NCCc2c[nH]cn2)cc1)NC(=O)OC(C)(C)C (stereo partly drawn) [Compound 12] | Inactive | impotent as H2 receptor agonists on NS cells | – | stimulated guinea pig myocardium | Activity / potency on NS cells (in words) (natural suppressor cells [1]; listed as compound 12): Neither an aliphatic amide derivative of histamine (compound 3) nor the dipeptide conjugate of histamine (compound 12) altered intracellular cAMP; also recorded: inactive on NS cells; Blockade of histamine mediated accumulation of cAMP (natural suppressor cells [3]; NS cells): failed to block histamine mediated accumulation of cAMP
